These results are taken from patent US5395922A, “Yeast processing system” (Novo Nordisk A/S, priority 1989, dated 1995).

Holding throughout (type): biochemical
Experiment [1] relates to trypsin. Briefly: Trypsin inhibition titration curves (S 2251 substrate, rate of nitroaniline production). The settings on record: 30 minutes incubation of enzyme with inhibitor, 0.6 mM S 2251; FIG. 5A. As for the experimental part:
(§1) The trypsin and plasmin inhibition by Glu-Leu-aprotinin (1-58) in terms of titration curves determined as described below were indistinguishable from that of bovine pancreatic aprotinin (Aprotinin Novo). After incubation of the enzyme with aprotinin or its analogues for 30 minutes, 0.6 mM S 2251 (KabiVitrum) was added and the activity measured as the rate of nitroaniline production. The activity as a function of aprotinin concentration is plotted in FIG. 5A and 5B. Complete inhibition of both enzymes with all three inhibitors was observed.

Experiment [2] deals with plasmin (Homo sapiens, UniProt P00747). Put plainly: Plasmin inhibition titration curves (S 2251 substrate, rate of nitroaniline production). The following applies: 30 minutes incubation of enzyme with inhibitor, 0.6 mM S 2251; FIG. 5B. The method, then:
as §1

In experiment [3] the test system is trypsin. Briefly: Trypsin inhibitor specific activity, spectrophotometric assay (method of Kassel). The following applies: comparison with native aprotinin. The method, then:
Yeast strain KFN-837 was grown on YPD medium (1% yeast extract, 2% peptone (from Difco Laboratories), and 6% glucose). A 200 ml culture of the strain was shaken at 250 rpm at 30° C. for 3 days to an O.D. at 600 nm of 20 (Dry yeast biomass 18.8 g/liter). After centrifugation the supernatant was analyzed by FPLC ion exchange chromatography. The yeast supernatant was filtered through a 0.22 μm Millex GV filter unit and 1 ml was applied on a MonoS cation exchange column (0.5×5 cm) equilibrated with 20 mM Bicine, pH=8.7. After wash with equilibration buffer the column was eluted with a linear NaCl gradient (0-1M) in equilibration buffer. Trypsin inhibitor activity was quantified in the eluted fractions by spectrophotometric assay (Kassel, B., Methods Enzymol. 19 (1970), 844-852) and furthermore by integration of absorption at 280 nm from [formula] The yield was […] of Glu-Leu-aprotinin(1-58).
The trypsin and plasmin inhibition by Glu-Leu-aprotinin (1-58) in terms of titration curves determined as described below were indistinguishable from that of bovine pancreatic aprotinin (Aprotinin Novo). After incubation of the enzyme with aprotinin or its analogues for 30 minutes, 0.6 mM S 2251 (KabiVitrum) was added and the activity measured as the rate of nitroaniline production. The activity as a function of aprotinin concentration is plotted in FIG. 5A and 5B. […]

plasmin, sequence (P00747 581-810 limits assumed, species assumed): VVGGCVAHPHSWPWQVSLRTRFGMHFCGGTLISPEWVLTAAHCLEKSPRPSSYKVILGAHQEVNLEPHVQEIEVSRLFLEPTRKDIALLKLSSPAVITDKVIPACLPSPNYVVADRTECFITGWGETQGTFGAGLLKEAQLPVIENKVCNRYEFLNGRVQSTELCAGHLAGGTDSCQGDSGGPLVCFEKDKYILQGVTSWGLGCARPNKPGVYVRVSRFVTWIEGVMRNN
plasmin, sequence (P00747 97-580 partner limits assumed, species assumed): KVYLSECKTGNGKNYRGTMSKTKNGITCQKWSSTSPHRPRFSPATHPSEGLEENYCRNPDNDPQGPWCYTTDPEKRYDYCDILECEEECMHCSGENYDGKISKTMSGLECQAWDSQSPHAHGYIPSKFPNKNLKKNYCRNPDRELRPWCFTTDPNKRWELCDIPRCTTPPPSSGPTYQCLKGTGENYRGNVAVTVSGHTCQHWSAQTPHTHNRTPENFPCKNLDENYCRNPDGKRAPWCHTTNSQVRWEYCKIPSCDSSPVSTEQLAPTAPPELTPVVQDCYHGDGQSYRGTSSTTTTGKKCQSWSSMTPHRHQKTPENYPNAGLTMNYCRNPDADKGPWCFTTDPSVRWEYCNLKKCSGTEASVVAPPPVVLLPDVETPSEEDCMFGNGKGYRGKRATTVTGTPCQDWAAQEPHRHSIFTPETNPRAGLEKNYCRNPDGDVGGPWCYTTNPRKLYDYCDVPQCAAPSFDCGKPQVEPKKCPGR

On to Glu-Leu-Asp-Leu-aprotinin(1-58), for which, in experiment [1], the “trypsin inhibition in terms of titration curves, compared with bovine pancreatic aprotinin (Aprotinin Novo)” value is on record as “indistinguishable”. Also, the “plasmin inhibition in terms of titration curves, compared with bovine pancreatic aprotinin (Aprotinin Novo)” value in experiment [2] is reported as “indistinguishable”.
Regarding Glu-Leu-aprotinin(1-58), the “specific (inhibitory) activity against trypsin compared with native / bovine pancreatic aprotinin” value in experiment [3] is listed as “identical within the experimental error”. The “trypsin inhibition in terms of titration curves, compared with bovine pancreatic aprotinin (Aprotinin Novo)” value in experiment [1] is given as “indistinguishable”. The “plasmin inhibition in terms of titration curves, compared with bovine pancreatic aprotinin (Aprotinin Novo)” value in experiment [2] is “indistinguishable”.
For the substance aprotinin(1-58), the “specific (inhibitory) activity against trypsin compared with native / bovine pancreatic aprotinin” value in experiment [3] is listed as “indistinguishable”.
